Activity calls are given as the source filed them. The rule behind the calls is not given here.
Tested on: 697B B-cell line, NF-kB luciferase reporter luminescence
Test: inhibitors of B-cell NF-kB luciferase signal – 697B cells, luminescence, selectivity assay for T-cell antigen receptor NF-kB inhibitors, dose response (AID 489033)

SMILES	IC50
CCCCCCCOc1ccc(OC(=O)c2cccnc2)cc1	> 80 µM (inactive)
Cn1cc(/C=N/n2cnc3scc(-c4ccc(Cl)cc4)c3c2=O)c2ccccc21	> 80 µM (inactive)
CSc1nccc(-c2nn(-c3ccc(C)cc3)ccc2=O)n1	> 80 µM (inactive)
CCOC(=O)c1ccc(NC(=O)Cn2cnc3cc(C)c(C)cc32)cc1	> 80 µM (inactive)
COc1cc(C(=O)N2CCN(c3cc(Cl)ccc3Cl)CC2)cc(OC)c1OC	> 80 µM (inactive)
COC(=O)C1CN(C#N)N(c2ccc(Cl)cc2)C12c1ccccc1-c1ccccc12 (stereo unspecified)	3.58 µM
CCCC(=O)NC(c1ccc(C)cc1)c1ccc2cccnc2c1O (stereo unspecified)	> 80 µM (inactive)
Cc1ccc(S(=O)(=O)Nc2ccccc2-c2ccccc2)cc1	> 80 µM (inactive)
O=[N+]([O-])c1ccc(Sc2ccc(Cl)c(Cl)c2)nc1	13.1 µM
N=c1ccn(CC(=O)c2ccc(-c3ccccc3)cc2)cc1	19.2 µM
CCc1ccc2nc(SCC(=O)Nc3ccccc3N3CCOCC3)c(C#N)cc2c1	> 80 µM (inactive)
Cc1ccc2c(c1)Oc1ccc(NC(=O)CCl)cc1C(=O)N2	0.72 µM
CCCCCCCCCn1c2c(c(=N)c3c1CCC3)CCCC2	0.33 µM
CC#CC(=O)N1CCC(n2nccc2NC(=O)c2ccc3c(c2)OCO3)CC1	> 80 µM (inactive)
COc1ccc(OC)c(C2CC(=O)c3c([nH]c(C(=O)OC(C)C)c3C)C2)c1 (stereo unspecified)	> 80 µM (inactive)
O=C(Nc1ccc(F)cc1)c1ccc(CN2CCc3ccccc3C2)cc1	> 80 µM (inactive)
COc1ccc(/C=N/NC(=O)c2[nH]c3ccc(Br)cc3c2-c2ccccc2)cc1	> 80 µM (inactive)
COc1ccc(CC(=O)Nc2nc(-c3ccc(F)c(F)c3)cs2)cc1OC	57.5 µM (inactive)
COc1ccccc1N=C(C)C1=C(O)CC(c2ccccc2)CC1=O (stereo unspecified)	> 80 µM (inactive)
Cc1ncoc1C(=O)NC1CCCc2c1cnn2-c1ccc(C(C)(C)C)cc1 (stereo unspecified)	69.7 µM (inactive)
CCOc1cc(C#N)c(NC(=O)c2cccnc2)cc1OCC	> 80 µM (inactive)
CCOC(=O)COc1cccc2c(=O)n(CC(=O)NCc3ccc(F)cc3)ccc12	> 80 µM (inactive)
O=C(Nc1ccn(Cc2ccccc2F)n1)c1ccc(COc2ccc(Br)cc2)cc1	> 80 µM (inactive)
C=CCNC(=S)N/N=C(\C)c1ccccn1	0.61 µM

SMILES	IC50
O=C(Nc1ccc(S(=O)(=O)N2CCCC2)cc1)c1ccc(CN2CCc3ccccc3C2)cc1	> 80 µM (inactive)
O=C(CNC(=O)c1ccco1)N=Nc1c(O)n(CCc2ccccc2)c2ccccc12	> 80 µM (inactive)
CCOC(=O)c1[nH]c2c(c1C)C(=O)CC(c1ccco1)C2 (stereo unspecified)	> 80 µM (inactive)
CC[C@]1(O)CC2CN(CCc3c([nH]c4ccccc34)[C@@](C(=O)OC)(c3cc4c(cc3OC)N(C=O)[C@H]3[C@@](O)(C(=O)OC)[C@H](OC(C)=O)[C@]5(CC)C=CCN6CC[C@]43[C@@H]65)C2)C1 (stereo partly specified)	> 80 µM (inactive)
Cc1ccc(N2C(=O)c3cccc4c(N)ccc(c34)C2=O)c2cccnc12	> 80 µM (inactive)
O=S(=O)(c1ccc2c(c1)OCCO2)N1CCN(c2ncnc3sccc23)CC1	4 µM
Cc1ccc(-c2cc3c(N=O)c4ccccc4c-3n[nH]2)cc1	4.58 µM
CC(C)n1c(CN(C)Cc2ccccc2)nc2c1c(=O)n(C)c(=O)n2C	43.7 µM (inactive)
CCOC(=O)c1[nH]c(C)c(C(=O)OCC(=O)NC(C)c2ccc(F)cc2)c1C (stereo unspecified)	> 80 µM (inactive)
CC(=O)N(C)C1=C(N2CCOCC2)C(=O)c2ccccc2C1=O	17.9 µM
CCCC(=O)Nc1nc2ccc(S(=O)(=O)N3CCCCC3)cc2s1	> 80 µM (inactive)
CCCC[C@@H](C)C[C@@H](C)C(=O)N(C)[C@@H](CC(C)C)C(=O)N[C@H](C(=O)N(C)[C@H](C(=O)N1C[C@@H](O)C[C@H]1C(=O)N1C(=O)C=C[C@@H]1C)C(C)C)C(C)OC(C)=O (stereo partly specified)	< 0.16 µM
COc1ccc2c(c1)C(=O)N1[C@H]3c4cc(Br)ccc4OC[C@@H]3[C@H](c3ccccc3)[C@]1(C)C(=O)N2	> 80 µM (inactive)
CC1=C([N+](=O)[O-])C(c2ccccc2)C2=C(N1)c1ccccc1C2=O (stereo unspecified)	> 80 µM (inactive)
O=C(N[C@@H](Cc1ccccc1)C(=O)CCl)OCc1ccccc1	5.69 µM
CCOC(=O)c1[nH]c(C=O)c(C(=O)OCC)c1C	59.5 µM (inactive)
CSc1ccc(COC(=O)c2cc([N+](=O)[O-])ccc2N2CCOCC2)cc1	30 µM (inactive)
COc1cc2c(c(OC)c1OC)-c1ccc(OC)c(=O)cc1[C@@H](N(C)CC#CCO)CC2	> 80 µM (inactive)
CCCOC(=O)c1[nH]c2c(c1C)C(=O)CC(c1cccs1)C2 (stereo unspecified)	> 80 µM (inactive)
C=C1C(O)[C@@H]2O[C@]3(CC[C@H](/C=C/C(C)[C@@H]4CC(C)=CC5(O[C@H](C[C@@](C)(O)CO)CCC5O)O4)O3)CC[C@H]2O[C@@H]1C(O)CC(C)[C@H]1OC2(CCCCO2)CCC1C (stereo partly specified)	3.19 µM
O=c1cc(-c2cccc(F)c2)[nH]c2ccccc12	> 80 µM (inactive)
Nc1nc2n[nH]nc2c(=O)[nH]1	2.56 µM
COc1ccc(C(=O)NNC(=O)c2ccccn2)cc1	5.2 µM
O=C(c1ccccc1)c1nn(-c2ccc(Cl)cc2)c(=O)cc1C(F)(F)F	6.53 µM

SMILES	IC50
COc1ccc(OC)c2c1C(=O)C(Cl)=C(Cl)C2=O	4.03 µM
O=C(NCc1cccs1)C1CCN(c2ccc(S(=O)(=O)N3CCOCC3)cc2Cl)CC1	> 80 µM (inactive)
O=C(Nc1ccc(S(=O)(=O)N2CCOCC2)cc1)c1ccc(CN2CCc3ccccc3C2)cc1	> 80 µM (inactive)
CCOC(=O)Nc1nc(-c2ccccc2)c(C(=O)c2ccccc2)s1	> 80 µM (inactive)
CCCC1=Nc2cc(C(=O)NCCCOCC)ccc2Sc2ccccc21	> 80 µM (inactive)
Cc1cccc(OCCNC(=O)c2ccc(Cl)c(S(=O)(=O)NCc3cccnc3)c2)c1	> 80 µM (inactive)
CC(=O)Nc1ccc(S(=O)(=O)N2CCCc3ccccc32)cc1	> 80 µM (inactive)
COc1ccc(NC(=O)Cn2nnc(-c3ccccc3NS(=O)(=O)c3ccc(OC)cc3)n2)cc1	> 80 µM (inactive)
COc1ccc(C2=NOC(C(=O)NCc3ccc(F)cc3)C2)cc1OC (stereo unspecified)	> 80 µM (inactive)
O=S1(=O)Nc2c(ccc3cccnc23)-c2ccccc21	0.54 µM
O=C(/C=C/c1cccc([N+](=O)[O-])c1)n1cnc2ccccc21	3.2 µM
COc1ccccc1NC(=O)Cn1nnc(C(=O)NCc2cccs2)c1N	> 80 µM (inactive)
COC(=O)c1cn(NC(=O)c2cc([N+](=O)[O-])ccc2F)c(=O)c2ccccc12	2.43 µM
COc1cc(Nc2ccc(C)cc2)c([N+](=O)[O-])nc1[N+](=O)[O-]	> 80 µM (inactive)
Cc1cc(/C=C2\Sc3ccccc3N2C)cc(C)[n+]1CC1CCCO1 (stereo unspecified)	> 80 µM (inactive)
Clc1ccc(CSc2nncn2-c2ccc3c(c2)OCCO3)cc1	70 µM (inactive)
COc1cc(C(=O)N/N=C/c2cc([N+](=O)[O-])cs2)cc(OC)c1OC	5.64 µM
CCOc1ccc(N(CC(=O)Nc2ccccc2C)S(=O)(=O)c2c(C)noc2C)cc1	> 80 µM (inactive)
Cc1ccc2c(c1)sc(-c1ccc(N(C)C)cc1)[n+]2C	33.6 µM (inactive)
COc1cc(CC(=O)OCC(=O)c2ccc3c(c2)OCCO3)cc(OC)c1OC	> 80 µM (inactive)
Cc1cc(-c2ccc(C)c(S(=O)(=O)N3CCN(c4ccc([N+](=O)[O-])cc4)CC3)c2)on1	> 80 µM (inactive)
O=C(c1cc(-c2ccncc2)nc2c(Cl)cccc12)N1CCN(c2ccccc2F)CC1	> 80 µM (inactive)
O=C(Nc1ccc(N2CCOCC2)cc1)c1ccc(Cl)c(S(=O)(=O)N2CCCCC2)c1	> 80 µM (inactive)
CCOc1ccc(S(=O)(=O)NCc2ccccn2)cc1NC(=O)c1ccccc1F	> 80 µM (inactive)

SMILES	IC50
CCn1nc(C)c(CNC(=O)c2ccc(OC3CCN(Cc4ccccn4)CC3)cc2)c1C	> 80 µM (inactive)
COc1cc(C(=O)Nc2ccc3c(c2)ncn3C)cc(OC)c1OC	> 80 µM (inactive)
CCCCc1ccc(NC(=O)c2ccc(N(C)S(C)(=O)=O)cc2)cc1	> 80 µM (inactive)
O=C(Cc1ccc(-c2ccccc2)cc1)NCc1ccccc1	> 80 µM (inactive)
Oc1ccc2ccccc2c1/C=N/Nc1nnc(-c2ncc[nH]2)c2ccccc12	> 80 µM (inactive)
COc1cccc(CN(C)C(=O)c2cc(COc3ccc4ncccc4c3)on2)c1	> 80 µM (inactive)
COc1cc2c(cc1O)CC[C@@H]1[C@@H]2CC[C@]2(C)[C@@H](O)CC[C@@H]12	> 80 µM (inactive)
CCc1ccc(/C=N/NC(=O)c2cc(-c3ccncc3)nc3ccccc23)s1	4.09 µM
C[C@]12CC[C@@H]3c4cc(O)c(O)cc4CC[C@H]3[C@@H]1CC[C@@H]2O	14.3 µM
Cc1nc(Nc2nc3c(c(=O)[nH]2)CCC3)nc2ccccc12	6.06 µM
Cc1ccc(NC(=O)CSc2nc(-c3ccco3)cc(C(F)(F)F)n2)cc1C	> 80 µM (inactive)
CCN(CC)S(=O)(=O)c1ccc(NC(=O)c2ccc(CN3CCOCC3)cc2)cc1	10.1 µM
COc1ccc(C(NC(=O)C(C)C)c2ccc3cccnc3c2O)cc1 (stereo unspecified)	> 80 µM (inactive)
O[C@@H]1[C@@H](O)C=C2CCN3Cc4cc5c(cc4[C@H]1C23)OCO5 (stereo partly specified)	3.28 µM
CCOC(=O)C(C)Oc1cccc2c(=O)n(CC(=O)NCc3ccc(F)cc3)ccc12 (stereo unspecified)	> 80 µM (inactive)
COc1ccc(OC)c(Nc2cc(-c3ccccc3)nc(N)n2)c1	> 80 µM (inactive)
CCCc1cc(C(=O)Nc2cc(C)ccc2O)no1	> 80 µM (inactive)
CCC(=O)NC(c1cccs1)c1ccc2cccnc2c1O (stereo unspecified)	> 80 µM (inactive)
CCN1/C(=C/c2ccc3cc(C)ccc3[n+]2CC)Sc2ccc3sccc3c21	9.39 µM
CCOCCCNC(=O)c1cc2c(=O)n3cccc(C)c3nc2n1C	> 80 µM (inactive)
Cc1ccc(S(=O)(=O)Cc2ccc(C(=O)N3CCN(c4cccc(C)c4C)CC3)o2)cc1	57.9 µM (inactive)
CCCCCc1ccc(OCCCC[n+]2ccc(C)cc2)c(CCCCC)c1	4.21 µM
Cc1ccc2nc(C)c(CN3CCN(c4ccc([N+](=O)[O-])cc4Cl)CC3)n2c1	> 80 µM (inactive)
COc1cc(OC)c(/C=C2\C(=O)Nc3ccccc32)c(OC)c1	62.6 µM (inactive)
